Measured values as given in patent publication US11331327B2, “Antibacterial use of halogenated salicylanilides” (UNION therapeutics A/S, priority 2014, dated 2022).
Values after ≈ are worked out from the molar mass of the structure shown. Where two headings read alike, the source gives them in different places.

Tested on: S. aureus clinical isolates and S. aureus ATCC 29213
Experiment: MIC assay according to CLSI criteria, Example 2, S. aureus strains
Format: cell-based, Staphylococcus aureus
Details: Staphylococcus aureus, read-out: MIC
Procedure, shortened: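 S. aureus grown aerobically in cation-adjusted Mueller Hinton broth at 37° C. Exponential-phase cultures inoculated at about 5×10^5 cells per well, then incubated 18 hours at 37° C.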

C/C(=C\C(=O)OCCCCCCCCC(=O)O)C[C@@H]1OC[C@H](C[C@@H]2O[C@H]2[C@@H](C)[C@H](C)O)[C@@H](O)[C@H]1O [Mupirocin]
MIC (ATCC29213, strain 9-1862936): 0.25 µg/mL (≈ 0.499 µM)
MIC (ATCC29213, strain 9-2625962): 0.5 µg/mL (≈ 0.999 µM)
MIC (ATCC29213, strain 9-2642158): 0.25 µg/mL (≈ 0.499 µM)
MIC (ATCC29213, strain 9-2955245): 0.25 µg/mL (≈ 0.499 µM)
MIC (ATCC29213, strain 9-26422166): 0.25 µg/mL (≈ 0.499 µM)
MIC (ATCC29213, strain 000040C): 0.25 µg/mL (≈ 0.499 µM)
MIC (ATCC29213, strain 000041C): 0.25 µg/mL (≈ 0.499 µM)
MIC (ATCC29213, strain 000274T): 0.5 µg/mL (≈ 0.999 µM)
MIC (ATCC29213, strain 114660U): 0.25 µg/mL (≈ 0.499 µM)
MIC (ATCC29213, strain 115015T): 0.5 µg/mL (≈ 0.999 µM)
MIC (ATCC29213, strain 115242C): 0.25 µg/mL (≈ 0.499 µM)
MIC (ATCC29213, strain 115263C): 0.25 µg/mL (≈ 0.499 µM)
MIC (ATCC29213, strain 115268C): 0.5 µg/mL (≈ 0.999 µM)
MIC (ATCC29213, strain 115273C): 0.25 µg/mL (≈ 0.499 µM)
MIC (ATCC29213, strain 115295C): 0.25 µg/mL (≈ 0.499 µM)
MIC (ATCC29213, strain 115303C): 0.25 µg/mL (≈ 0.499 µM)
MIC (ATCC29213, strain 115370U): 0.125 µg/mL (≈ 0.25 µM)
MIC (ATCC29213, strain 115427C): 0.25 µg/mL (≈ 0.499 µM)
MIC (ATCC29213, strain 115445C): 0.25 µg/mL (≈ 0.499 µM)
MIC (ATCC29213, strain 115561C): 0.5 µg/mL (≈ 0.999 µM)
MIC (ATCC29213, strain 115584D): 0.5 µg/mL (≈ 0.999 µM)
MIC (ATCC29213, strain 115628T): 0.25 µg/mL (≈ 0.499 µM)
MIC (ATCC29213, strain 115690C): 0.125 µg/mL (≈ 0.25 µM)
MIC (ATCC29213, strain 115691T): 0.25 µg/mL (≈ 0.499 µM)
MIC (ATCC29213, strain 115740E): 0.25 µg/mL (≈ 0.499 µM)
MIC (ATCC29213, strain 115810E): 0.25 µg/mL (≈ 0.499 µM)
MIC (ATCC29213, strain 115903T): 0.5 µg/mL (≈ 0.999 µM)
MIC (ATCC29213, strain 116122T): 0.5 µg/mL (≈ 0.999 µM)
MIC (ATCC29213, strain ATCC 29213): 0.125 µg/mL (≈ 0.25 µM)
MIC (ATCC29213, strain E5-1029252): 0.5 µg/mL (≈ 0.999 µM)
MIC (ATCC29213, strain E5-1029558): 0.5 µg/mL (≈ 0.999 µM)
MIC (ATCC29213, strain E5-1030440): 0.25 µg/mL (≈ 0.499 µM)
MIC (ATCC29213, strain E5-1030469): 0.25 µg/mL (≈ 0.499 µM)
MIC (ATCC29213, strain E5-1030472): 0.5 µg/mL (≈ 0.999 µM)
MIC (ATCC29213, strain E5-1030482): 0.25 µg/mL (≈ 0.499 µM)
MIC (ATCC29213, strain E5-1033076 (first line, r202)): 0.25 µg/mL (≈ 0.499 µM)
MIC (ATCC29213, strain E5-1033076 (second line, r203)): 0.25 µg/mL (≈ 0.499 µM)
MIC (ATCC29213, strain E5-1033088): 0.25 µg/mL (≈ 0.499 µM)
MIC (ATCC29213, strain E5-1033091): 0.25 µg/mL (≈ 0.499 µM)
MIC (ATCC29213, strain E5-1035277): 0.5 µg/mL (≈ 0.999 µM)
MIC (ATCC29213, strain E5-1035284): 0.25 µg/mL (≈ 0.499 µM)
MIC (ATCC29213, strain E5-1035775): 0.25 µg/mL (≈ 0.499 µM)
MIC (ATCC29213, strain E5-1035779): 0.5 µg/mL (≈ 0.999 µM)
MIC (ATCC29213, strain E5-1037958): 0.5 µg/mL (≈ 0.999 µM)
MIC (ATCC29213, strain E5-1037971): 0.25 µg/mL (≈ 0.499 µM)
MIC (ATCC29213, strain E5-1038279): 0.25 µg/mL (≈ 0.499 µM)
MIC (ATCC29213, strain E5-1038286): 0.5 µg/mL (≈ 0.999 µM)
MIC (ATCC29213, strain E5-1038294): 0.25 µg/mL (≈ 0.499 µM)
MIC (ATCC29213, strain E5-1039684): 0.25 µg/mL (≈ 0.499 µM)
MIC (ATCC29213, strain E5-1039697): 0.25 µg/mL (≈ 0.499 µM)
MIC (ATCC29213, strain E5-1041977): 0.5 µg/mL (≈ 0.999 µM)
MIC (ATCC29213, strain E5-1041979): 0.5 µg/mL (≈ 0.999 µM)
MIC (ATCC29213, strain E5-1041980): 0.25 µg/mL (≈ 0.499 µM)
MIC (ATCC29213, strain E5-1041987): 0.25 µg/mL (≈ 0.499 µM)
MIC (ATCC29213, strain E5-1043184): 0.5 µg/mL (≈ 0.999 µM)
MIC (ATCC29213, strain E5-1043668): 0.25 µg/mL (≈ 0.499 µM)
MIC (ATCC29213, strain E5-1045179): 0.25 µg/mL (≈ 0.499 µM)
MIC (ATCC29213, strain E5-1046019): 0.25 µg/mL (≈ 0.499 µM)
MIC (ATCC29213, strain E5-1046020): 0.25 µg/mL (≈ 0.499 µM)
MIC (ATCC29213, strain E5-1046039): 0.25 µg/mL (≈ 0.499 µM)
MIC (ATCC29213, strain E5-1046070): 0.5 µg/mL (≈ 0.999 µM)
MIC (ATCC29213, strain E5-1046074): 0.25 µg/mL (≈ 0.499 µM)
MIC (ATCC29213, strain E5-1046085): 0.5 µg/mL (≈ 0.999 µM)
MIC (ATCC29213, strain E5-1046096): 0.5 µg/mL (≈ 0.999 µM)
MIC (ATCC29213, strain E5-1046296): 1 µg/mL (≈ 2 µM)
MIC (ATCC29213, strain E5-1046297): 0.25 µg/mL (≈ 0.499 µM)
MIC (ATCC29213, strain E5-1046298): 0.25 µg/mL (≈ 0.499 µM)
MIC (ATCC29213, strain E5-1046723): 0.25 µg/mL (≈ 0.499 µM)
MIC (ATCC29213, strain E5-1047585): 0.25 µg/mL (≈ 0.499 µM)
MIC (ATCC29213, strain E5-1047606): 0.5 µg/mL (≈ 0.999 µM)
MIC (ATCC29213, strain E5-1047924): 0.5 µg/mL (≈ 0.999 µM)
MIC (ATCC29213, strain E5-1048204): 0.25 µg/mL (≈ 0.499 µM)
MIC (ATCC29213, strain E5-1048428): 0.25 µg/mL (≈ 0.499 µM)
MIC (ATCC29213, strain E5-1048654): 0.25 µg/mL (≈ 0.499 µM)
MIC (ATCC29213, strain E5-1048670): 0.5 µg/mL (≈ 0.999 µM)
MIC (ATCC29213, strain EEFIC 01): 0.125 µg/mL (≈ 0.25 µM)
MIC (ATCC29213, strain EEFIC 02): 0.125 µg/mL (≈ 0.25 µM)
MIC (ATCC29213, strain K000772): 0.125 µg/mL (≈ 0.25 µM)
MIC (ATCC29213, strain K000796): 0.5 µg/mL (≈ 0.999 µM)
MIC (ATCC29213, strain K000863): 0.5 µg/mL (≈ 0.999 µM)
MIC (ATCC29213, strain K000864): 0.25 µg/mL (≈ 0.499 µM)
MIC (ATCC29213, strain K000866): 0.5 µg/mL (≈ 0.999 µM)
MIC (ATCC29213, strain K115498): 0.5 µg/mL (≈ 0.999 µM)
MIC (ATCC29213, strain K115688): 0.25 µg/mL (≈ 0.499 µM)
MIC (ATCC29213, strain K115689): 0.25 µg/mL (≈ 0.499 µM)
MIC (ATCC29213, strain R000019): 0.5 µg/mL (≈ 0.999 µM)
MIC (ATCC29213, strain R000020): 0.5 µg/mL (≈ 0.999 µM)
MIC (ATCC29213, strain R000024): 0.5 µg/mL (≈ 0.999 µM)
MIC (ATCC29213, strain U115579): 0.5 µg/mL (≈ 0.999 µM)
MIC (ATCC 29213 / MRSA, strain MRSA 01): 0.25 µg/mL (≈ 0.499 µM)
MIC (ATCC 29213 / MRSA, strain MRSA 02): 0.25 µg/mL (≈ 0.499 µM)
MIC (ATCC 29213 / MRSA, strain MRSA 03): 0.25 µg/mL (≈ 0.499 µM)
MIC (ATCC 29213 / MRSA, strain MRSA 04): 0.25 µg/mL (≈ 0.499 µM)
MIC (ATCC 29213 / MRSA, strain MRSA 05): 0.125 µg/mL (≈ 0.25 µM)
MIC (ATCC 29213 / MRSA, strain MRSA 06): 0.25 µg/mL (≈ 0.499 µM)
MIC (ATCC 29213 / MRSA, strain MRSA 07): 0.25 µg/mL (≈ 0.499 µM)
MIC (ATCC 29213 / MRSA, strain MRSA 08): > 16 µg/mL
MIC (ATCC 29213 / MRSA, strain MRSA 09): 0.25 µg/mL (≈ 0.499 µM)
MIC (ATCC 29213 / MRSA, strain MRSA 10): 0.25 µg/mL (≈ 0.499 µM)
MIC (ATCC 29213 / MRSA, strain MRSA 11): 0.5 µg/mL (≈ 0.999 µM)
MIC (ATCC 29213 / MRSA, strain MRSA 12): 0.125 µg/mL (≈ 0.25 µM)
MIC (ATCC 29213 / MRSA, strain MRSA 13): 0.25 µg/mL (≈ 0.499 µM)
MIC (ATCC 29213 / MRSA, strain MRSA 14): 0.125 µg/mL (≈ 0.25 µM)
